Test [1] has as its target T1, STAT4 (Homo sapiens, UniProt Q14765).
T1 sequence (Q14765 1-748): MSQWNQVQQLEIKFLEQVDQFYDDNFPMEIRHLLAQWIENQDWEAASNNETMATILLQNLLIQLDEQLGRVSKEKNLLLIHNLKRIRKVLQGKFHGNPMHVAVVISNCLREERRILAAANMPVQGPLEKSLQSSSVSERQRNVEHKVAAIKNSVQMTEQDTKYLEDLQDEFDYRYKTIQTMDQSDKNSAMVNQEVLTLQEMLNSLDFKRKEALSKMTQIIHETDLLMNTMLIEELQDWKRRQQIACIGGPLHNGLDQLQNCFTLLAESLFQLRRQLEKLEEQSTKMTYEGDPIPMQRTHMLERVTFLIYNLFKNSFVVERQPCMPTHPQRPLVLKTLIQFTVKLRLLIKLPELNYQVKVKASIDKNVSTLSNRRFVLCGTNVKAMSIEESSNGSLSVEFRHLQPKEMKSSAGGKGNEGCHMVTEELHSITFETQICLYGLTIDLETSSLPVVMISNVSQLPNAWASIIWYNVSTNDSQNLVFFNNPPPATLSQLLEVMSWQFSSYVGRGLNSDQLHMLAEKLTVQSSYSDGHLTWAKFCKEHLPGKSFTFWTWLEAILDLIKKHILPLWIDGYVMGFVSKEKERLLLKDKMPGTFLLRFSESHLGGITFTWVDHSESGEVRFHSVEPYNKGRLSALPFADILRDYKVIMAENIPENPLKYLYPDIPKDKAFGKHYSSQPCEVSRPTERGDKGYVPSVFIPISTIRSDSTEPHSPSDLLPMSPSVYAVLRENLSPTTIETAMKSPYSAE
Briefly: Competitive fluorescence polarization (FP) assay, STAT4 SH2 domain. Type of test: binding. The following applies: FP assay; for Ki: tracer 5-carboxyfluorescein-GpYLPQNID-OH, Ki derived from IC50, read-out: STAT4 K i; for Ki / IC50: mean ± SD, n = 3. On the procedure:
(§1) Fluorescence polarization assays
(§2) Competitive fluorescence polarization assays, which measure the abilities of test compounds (dissolved in DMSO) to displace a fluorescent-labeled peptide from the SH2 domain of a STAT protein, were carried out essentially as described. Proteins were used at the following final concentrations: 23 nM or 28 nM for STAT4; between 56 nM and 91 nM for STAT1; 107 nM or 110 nM for STAT3; between 131 nM and 177 nM for STAT5a; between 62 nM and 85 nM for STAT5b; and 101 nM or 106 nM for STAT6. These concentrations represent the approximate […]
(§3) dissociation constant for peptide binding of the respective protein batches used in the assays.
(§4) The following peptides were used: 5-carboxyfluorescein-GpYLPQNID-OH for STAT4; 5-carboxyfluorescein-GpYDKPHVL for STAT1; 5-carboxyfluorescein-GpYLPQTV-NH2 for STAT3; 5-carboxyfluorescein-GpYLVLDKW for STAT5a/b, and 5-carboxyfluorescein- […]
(§5) Gp[…]-OH for STAT6. All peptides were used at a final concentration of 10 nM. The buffer consisted of 10 mM Tris (pH 8.0), 50 mM NaCl, 1 mM EDTA, 1 mM DTT, 0 .1 % Nonidet P-40 substitute, and 2 % DMSO. After incubation of protein and test compound for 1 h at room temperature, the fluorescent -labeled peptide was added. Samples were transferred to 384 - well microtiter plates and fluorescence polarization was read after an additional 60 min of incubation time. Measurements were performed in triplicate. Percent binding was calculated based on a logarithmic curve fit using OriginPro 8G software. IC 50 values were converted to Ki-values via the published equation[3] using the corresponding Excel spread sheet […]
(§6) https://websites.umich.edu/~shaomengwanglab/software/calc_ki/index.html .
(§7) Error bars represent standard deviations. Ligand efficiencies (LE) were calculated by the formula LE = -1,37 x log Ki / number of non-hydrogen atoms.[4] […]
On the technique in general: Polarisation of emitted light reports the rotation of a fluorescent probe.

Test [2] concerns the target T2, STAT1 (Homo sapiens, UniProt P42224).
T2 sequence (P42224 1-750): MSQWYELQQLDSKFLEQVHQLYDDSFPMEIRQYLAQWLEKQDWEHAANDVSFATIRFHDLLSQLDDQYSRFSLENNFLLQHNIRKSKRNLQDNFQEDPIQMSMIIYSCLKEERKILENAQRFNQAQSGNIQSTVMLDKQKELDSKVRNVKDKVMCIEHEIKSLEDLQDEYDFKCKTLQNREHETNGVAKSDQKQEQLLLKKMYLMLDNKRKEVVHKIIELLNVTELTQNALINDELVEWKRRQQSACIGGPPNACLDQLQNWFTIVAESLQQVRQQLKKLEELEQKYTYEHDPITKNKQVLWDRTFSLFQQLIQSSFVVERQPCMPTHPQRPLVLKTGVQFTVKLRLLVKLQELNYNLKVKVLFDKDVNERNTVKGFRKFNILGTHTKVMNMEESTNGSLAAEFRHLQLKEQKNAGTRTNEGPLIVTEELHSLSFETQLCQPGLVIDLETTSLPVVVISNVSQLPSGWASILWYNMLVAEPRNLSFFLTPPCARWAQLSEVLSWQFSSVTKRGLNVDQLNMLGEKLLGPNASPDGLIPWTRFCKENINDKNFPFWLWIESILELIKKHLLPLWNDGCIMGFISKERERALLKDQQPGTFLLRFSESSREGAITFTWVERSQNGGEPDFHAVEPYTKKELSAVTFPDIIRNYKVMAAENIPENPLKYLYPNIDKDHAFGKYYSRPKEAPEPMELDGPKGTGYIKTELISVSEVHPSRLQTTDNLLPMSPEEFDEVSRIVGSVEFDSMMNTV
Briefly: Competitive fluorescence polarization (FP) assay, STAT1 SH2 domain. Particulars: tracer 5-carboxyfluorescein-GpYDKPHVL, Ki derived from IC50. Type of test: binding. On the procedure:
as §1, §2, §3, §4, §5, §6, §7

Test [3] addresses STAT3 (Homo sapiens, UniProt P40763). Briefly: Competitive fluorescence polarization (FP) assay, STAT3 SH2 domain. Format: binding. Particulars: tracer 5-carboxyfluorescein-GpYLPQTV-NH2, Ki derived from IC50. As to the method:
as §1, §2, §3, §4, §5, §6, §7

Test [4] addresses T1, STAT4. Briefly: IL-12-induced STAT4 Tyr693 phosphorylation in NK-92 cells (Western blot). Type of test: cell-based. Also noted: utilizing cellular lysates from the STAT4‐expressing natural killer cell line NK‐92; endogenous in cells; host or cells: NK-92 (DSMZ). As to the method: NK-92 cells (DSMZ) were cultured in α-MEM containing 12.5% fetal bovine serum (FBS), 12.5% horse serum, 2 mM L-glutamine, penicillin/streptomycin and 50 U/ml IL -2. […]
The components of cell lysates from treated cells, or heat-treated lysates from CETSA, were separated by SDS-PAGE (10%), transferred to nitrocellulose membrane (Bio-Rad) and detected using monoclonal rabbit primary antibodies (Cell Signaling), α-rabbit-HRP secondary antibody (Dako) and Western Lightning Plus chemiluminescence reagent (Perkin Elmer).
Bands were visualized using an ImageQuant system (GE Healthcare) and quantitated using ImageJ software (NIH). […]
The sitting drop was composed of 0.1 µl protein solution and 0.1 µl reservoir solution. Plates were stored at 19°C in a protein […]
In the first set of experiments, w e tried to crystallize STAT4 as a SUMO -STAT4 fusion protein […]
was cleaved off as described above.
Screening for crystallization conditions for tag-free STAT4 was performed both in the absence or presence of 1 equivalent of 6m or 6h. Since the chosen protein concentration of 3.6 mg/ml appeared to be too low, screening was repeated with a higher concentration of 6.4 mg/ml STAT4 for all conditions (corresponding to 100 µM 6m). Both the SUMO-STAT4 and the tag-free STAT4 preferentially precipitated under conditions containing polyethylene glycol. In one set of experiments, we also screened for conditions in the presence of the high-affinity peptide GY(PO3H2)LPQNID adapted from the IL-12 receptor. However, none of the conditions resulted in the growth of STAT4 crystals (Table S4).

“Also recorded” adds a separate entry of the source. Square brackets hold non-standard residues; d marks the D form. Peptide text beside a SMILES is read from it. pY = N[C@@H](Cc1ccc(OP(=O)(O)O)cc1)C(=O)O

Chain of STAT3 (P40763 whole entry, species assumed, the tested form may be a part): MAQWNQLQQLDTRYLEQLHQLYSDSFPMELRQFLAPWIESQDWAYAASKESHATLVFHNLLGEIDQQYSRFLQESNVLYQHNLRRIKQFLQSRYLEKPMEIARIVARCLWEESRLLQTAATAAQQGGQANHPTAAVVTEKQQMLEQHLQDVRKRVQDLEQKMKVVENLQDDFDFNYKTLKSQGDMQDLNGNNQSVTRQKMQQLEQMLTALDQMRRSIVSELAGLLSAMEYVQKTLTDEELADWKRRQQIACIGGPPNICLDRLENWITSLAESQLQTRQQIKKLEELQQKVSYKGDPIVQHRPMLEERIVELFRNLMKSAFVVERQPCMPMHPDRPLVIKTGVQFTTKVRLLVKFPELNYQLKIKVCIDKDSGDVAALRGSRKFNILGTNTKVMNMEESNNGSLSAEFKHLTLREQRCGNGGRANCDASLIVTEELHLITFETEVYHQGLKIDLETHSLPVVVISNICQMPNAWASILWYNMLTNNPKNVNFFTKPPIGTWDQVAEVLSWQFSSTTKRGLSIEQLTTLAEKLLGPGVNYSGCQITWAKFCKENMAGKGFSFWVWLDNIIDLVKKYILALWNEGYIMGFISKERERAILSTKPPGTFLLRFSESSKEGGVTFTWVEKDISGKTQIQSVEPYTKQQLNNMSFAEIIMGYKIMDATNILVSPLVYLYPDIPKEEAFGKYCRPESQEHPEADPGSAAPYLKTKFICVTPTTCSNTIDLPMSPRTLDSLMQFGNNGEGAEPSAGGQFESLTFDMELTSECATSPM

Consider `CC[C@H](C)[C@H](NC(=O)[C@H](CC(N)=O)NC(=O)[C@H](CCC(N)=O)NC(=O)[C@@H]1CCCN1C(=O)[C@H](CC(C)C)NC(=O)[C@H](Cc1ccc(OP(=O)(O)O)cc1)NC(=O)CNC(C)=O)C(=O)N[C@@H](CC(=O)O)C(=O)O` [Ac‐GpYLPQNID, reference compound] (Ac-G[pY]LPQNID-OH), for which the Ki was determined as 0.22 ± 0.02 µM in test [1], 0.36 ± 0.08 µM in test [2] and 0.24 ± 0.04 µM in test [3]. Consider `Oc1ccc(-c2ccc3ccccc3c2)cc1F` [Compound 4m], for which the “STAT4 inhibition at 200 µM” value in test [1] (200 µM) is “lack of activity; also recorded: no inhibition at 200 µM”. A word on the IC50: it is the concentration needed to halve the response being measured. The low end stands for greater potency, the high end for weaker potency. In the case of `COC(=O)c1ccccc1-c1ccc(OP(=O)(O)O)cc1` [Compound 6a], in test [1], the Ki turned out to be 9.1 ± 0.8 µM and the IC50 came out at 18 ± 2 µM.

On to `O=C(O)c1ccccc1-c1ccc(OP(=O)(O)O)cc1` [Compound 6b], for which, in test [1], the Ki is 7.8 ± 0.5 µM and the IC50 stood at 17 ± 1 µM. The matching figures for `N#Cc1ccccc1-c1ccc(OP(=O)(O)O)cc1` [Compound 6c]: 2.7 ± 0.3 µM and 5.2 ± 0.6 µM. Turning to `CC(=O)NCc1ccccc1-c1ccc(OP(=O)(O)O)cc1` [Compound 6d], in test [1], the Ki was 6.2 ± 0.4 µM and the IC50 is 12 ± 1 µM.

Regarding `COc1cc(OC)cc(-c2ccc(OP(=O)(O)O)cc2)c1` [Compound 6e], in test [1], the Ki stood at 1.9 ± 0.1 µM and the IC50 stood at 3.9 ± 0.2 µM. The matching figures for `O=P(O)(O)Oc1ccc(-c2cccc3ccccc23)cc1` [Compound 6f]: 0.84 ± 0.08 µM and 1.8 ± 0.2 µM.

As to `O=P(O)(O)Oc1ccc(-c2ccccc2)c(F)c1` [Compound 6i], in test [1], the Ki is 3.8 ± 0.1 µM and the IC50 came out at 8.1 ± 0.1 µM. Taken in the same sequence, the figures for `O=P(O)(O)Oc1c(F)cc(-c2ccccc2)cc1F` [Compound 6j] were 2 ± 0.1 µM and 4.3 ± 0.3 µM.

With `O=P(O)(O)Oc1ccc(-c2ccccc2)cc1Cl` [Compound 6k], in test [1], the Ki turned out to be 3.3 ± 1 µM and the IC50 was determined as 7 ± 2 µM. The matching figures for `COc1cc(-c2ccccc2)ccc1OP(=O)(O)O` [Compound 6l]: 22 ± 2 µM and 47 ± 5 µM.

The term inhibition denotes the share of the control response that was lost under treatment. Higher therefore signals strong suppression. `O=P(O)(O)Cc1ccc(-c2ccc3ccccc3c2)cc1F` [Compound 7] returned an inhibition at 100 µM in test [1] (100 µM, the highest concentration tested) of 33 ± 4%. As for `O=P(O)(O)C(F)(F)c1ccc(-c2ccoc2)cc1F` [Compound 8b], in test [1], the Ki stood at 39 ± 1 µM and the IC50 came to 83 ± 2 µM. Taken in the same sequence, the figures for `Cn1cc(-c2ccc(C(F)(F)P(=O)(O)O)c(F)c2)cn1` [Compound 8c] were 8 ± 0.7 µM and 15 ± 1 µM. Take `O=P(O)(O)C(F)(F)c1ccc(-c2cccs2)cc1F` [Compound 8d]: in test [1], the Ki was determined as 3.6 ± 0.2 µM and the IC50 was found to be 7.7 ± 0.4 µM. The matching figures for `O=P(O)(O)C(F)(F)c1ccc(-c2ccsc2)cc1F` [Compound 8e]: 2.8 ± 0.3 µM and 6 ± 0.6 µM. The matching figures for `COC(=O)c1cc(-c2ccc(C(F)(F)P(=O)(O)O)c(F)c2)cs1` [Compound 8f]: 4.4 ± 0.1 µM and 9.4 ± 0.2 µM. The matching figures for `NC(=O)c1cc(-c2ccc(C(F)(F)P(=O)(O)O)c(F)c2)cs1` [Compound 8g]: 11 ± 2 µM and 24 ± 4 µM. For `CC(=O)c1cc(-c2ccc(C(F)(F)P(=O)(O)O)c(F)c2)cs1` [Compound 8h], in test [1], the Ki came to 7.1 ± 0.6 µM and the IC50 was determined as 15 ± 1 µM.

For the compound `O=P(O)(O)C(F)(F)c1ccc(-c2csc(Cl)c2)cc1F` [Compound 8i], in test [1], the Ki stood at 5.5 ± 0.7 µM and the IC50 was 12 ± 2 µM. The matching figures for `O=P(O)(O)C(F)(F)c1ccc(-c2ccsc2Cl)cc1F` [Compound 8j]: 7.3 ± 0.6 µM and 15 ± 1 µM. For `Cc1sccc1-c1ccc(C(F)(F)P(=O)(O)O)c(F)c1` [Compound 8l], in test [1], the Ki turned out to be 8.7 ± 0.9 µM and the IC50 stood at 18 ± 2 µM. With `Cc1cscc1-c1ccc(C(F)(F)P(=O)(O)O)c(F)c1` [Compound 8m], in test [1], the Ki was 8.9 ± 0.7 µM and the IC50 is 19 ± 1 µM. As to `CC(C)(C)C(=O)OCOP(=O)(Cc1ccc(-c2ccc3ccccc3c2)cc1F)OCOC(=O)C(C)(C)C` [Compound 10], the “inhibition of IL‐12‐induced STAT4 Tyr693 phosphorylation” value is “inactive; also recorded: does not” in test [4] (2 h, presence of 25% serum) and “still inactive” in test [4] (absence of serum).

(Values after PMC12087874, “Biaryl Phosphates and Phosphonates as Selective Inhibitors of the Transcription Factor STAT4” (Angewandte Chemie (International Ed. in English), 2025).)
